{"source": "patent US11919886B2", "about": "“4,9-dioxo-4,9-dihydronaphtho[2,3-B]furan-3-carboxamide derivatives and uses thereof for treating proliferative diseases and infectious diseases” (Academia Sinica, priority 2016, dated 2024)", "key": {"[1]": {"system": "H1975 cells", "experiment": "BrdU incorporation (DNA replication) by flow cytometry", "assay_type": "cell-based, human", "details": "H1975, treated 12, 24 or 48 h", "method": "Panel (A): A chart showing DNA replication in Compound 1-treated H1975 cells was inhibited. DNA histograms (BrdU incorporation vs. DNA content) of DMSO or compound 1-treated H1975 cells are shown at 12 to 48 hours. The H1975 cells were BrdU-pulsed (BD Pharmingen™ BrdU Flow Kit Staining) and analyzed by flow cytometry. Panel (B): A chart showing compound 1 decreased the replication fork number. The replication forks were analyzed by immunofluorescence staining with anti-MCM2 antibodies (see row labeled “MCM2” and “Merge with DAPI”) and DAPI (see row labeled “Merge with DAPI”). The quantification was made by counting signals obtained with the anti-MCM2 antibody using Image J software. (n=5 cells per group; original magnification, ×1000). Panel (C): A chart showing compound 1-treated H1975 cells have a prolonged S phase. A double thymidine block was performed, and the data were collected at the indicated time points.\nTo evaluate the effects on DNA replication of Compound 1, the levels of BrdU (5′-bromo′-2′-deoxyuridine) incorporation were examined. Exemplary results are shown in Panel (A) of FIG. 2. […] The content of BrdU was assessed using fluorescent antibodies. […] The samples were analyzed in a FACS caliber flow cytometer (Becton Dickinson, Sweden) for dot plot histogram analysis (BrdU incorporation vs. DNA content)."}, "[2]": {"system": "H1975 cells", "experiment": "Replication fork number by MCM2 immunofluorescence staining", "assay_type": "cell-based, human", "details": "H1975, 140 nM, 48 h", "method": "In addition, to evaluate the effects of compound 1 on the progression of DNA replication, the number of replication forks was determined by MCM2 immunofluorescence staining in H1975 cells released from the G1 phase with DMSO and with compound 1 treatment. Exemplary results are shown in Panel (B) of FIG. 2. To evaluate the effects on DNA replication of compound 1, H1975 cells were arrested in G1 by contact inhibition. After 3 days, the cells were re-plated at a low density on cover slips and allowed to progress through the cell cycle. The cells were pulsed with 140 nM compound for 48 h and were fixed for 10 minutes at room temperature in 3.7% cold paraformaldehyde in PBS (pH 7.2), washed 3 times with PBS, and permeabilized for 10 minutes at room temperature in PBS containing 0.1% Triton X-100. The cells were blocked with PBS containing 3% bovine serum albumin and stained overnight at 4° C. with primary antibodies against MCM2, followed by incubation for 1 hour at 37° C. with Alexa Fluor 488 Goat Anti-Mouse IgG (Life Technologies Corporation), respectively. The cells were mounted onto microscope slides with ProLong Gold Antifade Reagent with DAPI (4′,6-Diamidino-2-phenylindole dihydrochloride) (Life Technologies Corporation) and then examined and photographed using Zeiss LSM 700 Confocal (Zeiss, Urbana, IL). […] (Panel (B) of FIG. 2)"}, "[3]": {"biological_target": "T1, MCM2 (Homo sapiens, UniProt P49736)", "T1 construct": "The MCM2 proteins were pulled down by incubating the H1975 lysate with compound 1-conjugated magnetic beads; endogenous in cells; host or cells: H1975", "T1 sequence (P49736 whole entry)": "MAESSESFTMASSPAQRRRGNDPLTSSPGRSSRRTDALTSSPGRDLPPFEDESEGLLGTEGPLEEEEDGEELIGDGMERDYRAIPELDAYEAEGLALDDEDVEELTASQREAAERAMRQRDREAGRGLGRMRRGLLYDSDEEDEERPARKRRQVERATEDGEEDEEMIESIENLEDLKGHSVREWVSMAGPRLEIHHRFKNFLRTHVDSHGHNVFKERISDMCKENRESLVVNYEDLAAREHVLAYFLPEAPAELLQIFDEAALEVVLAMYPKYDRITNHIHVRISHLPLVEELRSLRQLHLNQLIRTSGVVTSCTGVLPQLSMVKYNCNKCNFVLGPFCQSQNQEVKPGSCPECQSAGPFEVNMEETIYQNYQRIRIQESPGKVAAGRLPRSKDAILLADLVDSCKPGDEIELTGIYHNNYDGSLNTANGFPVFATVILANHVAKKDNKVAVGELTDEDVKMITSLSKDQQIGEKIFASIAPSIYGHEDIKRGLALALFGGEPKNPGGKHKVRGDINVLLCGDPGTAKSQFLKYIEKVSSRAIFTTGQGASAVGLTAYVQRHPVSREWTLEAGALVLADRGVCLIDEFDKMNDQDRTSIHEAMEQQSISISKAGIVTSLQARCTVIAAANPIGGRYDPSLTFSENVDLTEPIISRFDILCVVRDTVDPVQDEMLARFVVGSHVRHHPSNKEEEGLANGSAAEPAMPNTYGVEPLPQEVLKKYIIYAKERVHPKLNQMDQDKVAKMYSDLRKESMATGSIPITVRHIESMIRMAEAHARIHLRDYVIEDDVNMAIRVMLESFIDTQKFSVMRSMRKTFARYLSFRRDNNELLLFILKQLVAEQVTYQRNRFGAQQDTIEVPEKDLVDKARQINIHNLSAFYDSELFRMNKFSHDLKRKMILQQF", "experiment": "MCM2 ubiquitination (Myc-Ub transfection, MCM2 immunoprecipitation)", "assay_type": "cell-based", "details": "H1975 co-expressing Myc-Ub, 140 nM, 12 hours", "method": "To determine whether Compound 1 triggers MCM2 degradation through promoting MCM2 ubiquitination, Myc-tagged ubiquitin (Myc-Ub) was transfected into H1975 cells treated with or without compound 1 and followed by MCM2 immunoprecipitation. The cells were transiently transfected with pcDNA3-Myc-Ub and treated with or without 140 nM of compound 1 combined with MG132. After 12 hours, the cells were harvested and MCM2 proteins were precipitated with specific anti-MCM2 antibodies. The ubiqiuitination pattern were detected by immunoblotting. IgG served as the antibody control in the immunoprecipitation experiment."}, "[4]": {"system": "Staphylococcus haemolyticus", "experiment": "MIC, broth micro dilution method", "assay_type": "cell-based"}, "[5]": {"system": "Streptococcus gallolyticus subsp. gallolyticus", "experiment": "MIC, broth micro dilution method", "assay_type": "cell-based", "details": "strain ATCC43143, S. bovis"}, "[6]": {"system": "Streptococcus gallolyticus subsp. pasteurianus", "experiment": "MIC, broth micro dilution method", "assay_type": "cell-based", "details": "strain ATCC43144, S. bovis"}, "[7]": {"system": "Streptococcus infantarius subsp. infantarius", "experiment": "MIC, broth micro dilution method", "assay_type": "cell-based", "details": "strain ATCC BAA-102, S. bovis"}, "[8]": {"system": "Enterococcus faecium", "experiment": "MIC, broth micro dilution method", "assay_type": "cell-based"}, "[9]": {"system": "Staphylococcus lugdunensis", "experiment": "MIC, broth micro dilution method", "assay_type": "cell-based", "details": "clinical isolate; for MIC: Staphylococcus lugdunensis, strain NTUH-4179, methicillin-resistant"}, "[10]": {"system": "A549 (adenocarcinomic human alveolar basal epithelial cells)", "experiment": "SRB cytotoxicity assay, A549", "details": "A549, 72 h"}, "[11]": {"system": "CL1-0 (human lung adenocarcinoma cells, EGFR wild type and resistant to gefitinib)", "experiment": "SRB cytotoxicity assay, CL1-0", "details": "CL1-0, 72 h"}, "[12]": {"system": "HS68 (human foreskin fibroblast cells, used as normal cells)", "experiment": "SRB cytotoxicity assay, HS68 normal cells", "details": "Hs68, 72 h"}, "[13]": {"system": "H1975 cell line", "experiment": "Sulforhodamine B colorimetric (SRB) assay, H1975", "details": "Homo sapiens, NCI-H1975, 72 h"}, "[14]": {"details": "strain NTUH-6767, methicillin-resistant"}}, "note": "Read-outs that look alike come from different tables or passages of the source."}
{"smiles": "Cc1oc2c(c1C(=O)NCCCn1ccnc1)C(=O)c1ccccc1C2=O", "note": "[Compound 1, N-(3-(1H-Imidazol-1-yl)propyl)-2-methyl-4,9-dioxo-4,9-dihydronaphtho [2,3-b]furan-3-carboxamide]", "values": [{"measurement": "percentages of BrdU-positive cells vs DMSO control", "setting": "[1]", "value": "lower than those in the DMSO control group"}, {"measurement": "number of the replication fork", "setting": "[2]", "value": "176.8±8.721"}, {"measurement": "Ubiquitylated MCM2", "setting": "[3]", "value": "detected in treated cells"}, {"measurement": "MIC", "setting": "[4]; read-out: MIC (μg/ml) 100%, strain ATCC29970, methicillin-susceptible", "value": 4, "unit": "µg/mL"}, {"measurement": "MIC", "setting": "[4]; strain ATCC29970, methicillin-susceptible, read-out: MIC (μg/ml) 50%", "value": 2, "unit": "µg/mL"}, {"measurement": "MIC", "setting": "[5]; read-out: MIC (μg/ml) 100%", "value": 4, "unit": "µg/mL"}, {"measurement": "MIC", "setting": "[5]; read-out: MIC (μg/ml) 50%", "value": 2, "unit": "µg/mL"}, {"measurement": "MIC", "setting": "[6]; read-out: MIC (μg/ml) 100%", "value": 4, "unit": "µg/mL"}, {"measurement": "MIC", "setting": "[6]; read-out: MIC (μg/ml) 50%", "value": 2, "unit": "µg/mL"}, {"measurement": "MIC", "setting": "[7]; read-out: MIC (μg/ml) 100%", "value": 8, "unit": "µg/mL"}, {"measurement": "MIC", "setting": "[7]; read-out: MIC (μg/ml) 50%", "value": 4, "unit": "µg/mL"}, {"measurement": "MIC", "setting": "[8]; read-out: MIC (μg/ml) 100%, strain ATCC19434", "value": 16, "unit": "µg/mL"}, {"measurement": "MIC", "setting": "[8]; strain ATCC19434, read-out: MIC (μg/ml) 50%", "value": 2, "unit": "µg/mL"}, {"measurement": "MIC", "setting": "[9]; read-out: MIC (μg/ml) 100%", "value": 4, "unit": "µg/mL"}, {"measurement": "MIC", "setting": "[9]; read-out: MIC (μg/ml) 50%", "value": 0.5, "unit": "µg/mL"}, {"measurement": "MIC (μg/ml) 50%", "setting": "[9]; [14]", "value": 0.5, "unit": "µg/mL"}, {"measurement": "MIC (μg/ml) 100%", "setting": "[9]; [14]", "value": 4, "unit": "µg/mL"}, {"measurement": "IC50", "setting": "[10]", "value": 53, "unit": "nM"}, {"measurement": "IC50", "setting": "[11]", "value": 123, "unit": "nM"}, {"measurement": "IC50", "setting": "[12]", "value": "> 1000", "unit": "nM"}, {"measurement": "IC50", "setting": "[13]; H1975, 72 h", "value": 77, "unit": "nM"}, {"measurement": "IC50", "setting": "[13]; H1975 cell line, SRB assay, 72 hours", "value": "77 to 247", "unit": "nM"}]}
